Key:
[1] = target: T1, menin/MLL (terbium chelate-labeled menin, FITC-MBM1 peptide) (Homo sapiens, UniProt O00255, T541A); assay: Menin/MLL homogenous time-resolved fluorescence (HTRF) assay; type: binding; settings: 30 min incubation
T1 construct: Menin (a.a 1-610-6xhis tag, 2.3 mg/mL in 20 mM Hepes)
T1 sequence (O00255 with tags, fused parts or gaps T541A): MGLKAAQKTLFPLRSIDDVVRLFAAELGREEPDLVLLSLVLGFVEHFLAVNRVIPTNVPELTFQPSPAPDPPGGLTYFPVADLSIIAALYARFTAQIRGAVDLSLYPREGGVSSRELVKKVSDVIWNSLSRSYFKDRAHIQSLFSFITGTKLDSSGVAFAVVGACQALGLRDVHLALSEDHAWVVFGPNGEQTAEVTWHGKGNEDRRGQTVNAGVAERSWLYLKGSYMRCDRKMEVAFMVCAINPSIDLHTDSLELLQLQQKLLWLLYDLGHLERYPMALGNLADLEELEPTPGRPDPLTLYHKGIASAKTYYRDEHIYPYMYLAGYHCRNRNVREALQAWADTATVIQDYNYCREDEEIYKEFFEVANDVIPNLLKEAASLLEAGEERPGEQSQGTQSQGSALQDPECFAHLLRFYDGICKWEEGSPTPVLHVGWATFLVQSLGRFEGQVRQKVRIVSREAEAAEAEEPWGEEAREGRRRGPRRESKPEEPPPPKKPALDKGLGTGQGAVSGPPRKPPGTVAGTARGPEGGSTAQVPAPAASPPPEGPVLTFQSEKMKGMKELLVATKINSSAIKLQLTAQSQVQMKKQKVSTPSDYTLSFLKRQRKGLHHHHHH
In short: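 Competition binding read by time-resolved FRET (FITC 520 nm over terbium 490 nm) after compound meets labeled menin 1-610-His […] for 30 min, then FITC-MBM1 (75 nM) for 15 min, ambient temperature, 0.5% DMSO. Eleven-point four-fold dilutions, usually starting at 10 μM, fitted to four-parameter curves for IC50.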

OCI-AML3 cells = assay: Proliferation assay (spheroid confluence, 8 days), OCI-AML3; type: cell-based, human; settings: Homo sapiens, OCI-AML-3, OCI-AML3; read-out: spheroid assay_OCI-AML3 IC50
Procedure: (§1) The anti-proliferative effect of menin/MLL protein/protein interaction inhibitor test compounds was assessed in human leukemia cell lines. The cell line MOLM14 harbors a MLL translocation and expresses the MLL fusion protein MLL-AF9, respectively, as well as the wildtype protein from the second allele. OCI-AML3 cells that carry the NPM1c gene mutation were also tested. […] KO-52 was used as a control cell line containing two MLL (KMT2A) wildtype alleles in order to exclude compounds that display general cytotoxic effects.
(§2) MOLM14 cells were cultured in RPMI-1640 (Sigma Aldrich) supplemented with 10% heat-inactivated fetal bovine serum (HyClone), 2 mM L-glutamine (Sigma Aldrich) and 50 μg/ml gentamycin (Gibco). KO-52 and OCI-AML3 cell lines were propagated in alpha-MEM (Sigma Aldrich) supplemented with 20% heat-inactivated fetal bovine serum (HyClone), 2 mM L-glutamine (Sigma Aldrich) and 50 μg/ml gentamycin (Gibco).
(§3) In order to assess the anti-proliferative effects, 200 MOLM14 cells, 200 OCI-AML3 cells or 300 KO-52 cells were seeded in 200 μl media per well in 96-well round bottom, ultra-low attachment plates (Costar, catalogue number 7007). Cell seeding numbers were chosen based on growth curves to ensure linear growth throughout the experiment. Test compounds were added at different concentrations and the DMSO content was normalized to 0.3%. Cells were incubated for 8 days at 37° C. and 5% CO2. Spheroid like growth was measured in real-time by live-cell imaging (IncuCyteZOOM, Essenbio, 4×objective) acquiring images at day 8. Confluence (%) as a measure of spheroid size was determined using an integrated analysis tool.
(§4) In order to determine the effect of the test compounds over time, the confluence in each well as a measure of spheroid size, was calculated. Confluence of the highest dose of a reference compound was used as baseline for the LC (Low control) and the confluence of DMSO treated cells was used as 0% cytotoxicity (High Control, HC).
(§5) Absolute IC50 values were calculated as percent change in confluence as follows:
(§6) LC=Low Control: cells treated with e.g. 1 μM of the cytotoxic agent staurosporin, or e.g. cells treated with a high concentration of an alternative reference compound
(§7) HC=High Control: Mean confluence (%) (DMSO treated cells)
(§8) % Effect=100−(100*(Sample−LC)/(HC−LC))
(§9) GraphPad Prism (version 7.00) was used to calculate the IC50. Dose-response equation was used for the plot of % Effect vs Log10 compound concentration with a variable slope and fixing the maximum to 100% and the minimum to 0%.

KO-52 cells = assay: Proliferation assay (spheroid confluence, 8 days), KO-52 control cell line; type: cell-based, human; settings: Homo sapiens, read-out: spheroid assay_KO-52 IC50
Procedure: as §1, §2, §3, §4, §5, §6, §7, §8, §9

[2] = Dynamic vapor sorption (DVS) moisture sorption analysis; type: physicochemical
Procedure: Dynamic Vapor Sorption (DVS)
The moisture sorption analysis (DVS) was performed using a ProUmid GmbH & Co. KG Vsorp Enhanced dynamic vapor sorption apparatus. The moisture profile was evaluated by monitoring vapor adsorption/desorption over the range of 0 to 90% relative humidity at 25° C. The sample weight equilibrium criteria were set at <0.01% change in 45 min with minimum and maximum time of acclimation at 50 min and 120 min, respectively. The moisture profile consisted of 2 cycles of vapor adsorption/desorption.
In the humidity range of 20-90% RH, the crystalline form adsorbs and desorbs moisture slowly and reversibly up to 2.5% by mass on average. Based on DVS, the crystalline HCl salt Form, at equilibrium, can contain around 3 equivalents of water (8.5-9.5% total moisture mass) at common ambient RH of 40% to 75%.

[3] = common ambient RH of 40% to 75%

Row | SMILES | IC50 [1] [nM] | IC50 (OCI-AML3 cells) [nM] | IC50 (KO-52 cells) [nM] | hygroscopicity of the crystalline form (DVS change in mass plot) ([2]; 0 to 90% relative humidity, 25° C., 2 cycles of adsorption/desorption) | solid-state form change after the DVS test (XRPD compared with the starting material) ([2]; XRPD of the fraction obtained after DVS) | dehydration behaviour at low relative humidity ([2]; below 10% RH, to complete dehydrated state at 0% RH) | total moisture mass at equilibrium [2, 3] | water content at equilibrium [2, 3] | moisture adsorbed and desorbed (slowly and reversibly), on average ([2]; humidity range of 20-90% RH, 25° C.)
1 | COCC(=O)N1CCC(C(C)N2CCC(Cc3cn(-c4ccc(F)cc4C(=O)N(C)C(C)C)c4cncc(C)c34)C2)CC1 (single isomer, unassigned) [Compound 117a] | 0.088 | 7 | 1600 |  |  |  |  |  | 
2 | CC(=O)N1CCC(CN2CC[C@@H](Cc3cn(-c4ccc(F)cc4C(=O)N(C)C(C)C)c4cncc(C)c34)C2)CC1.Cl [Compound 51a] | 0.024 |  |  | hygroscopic | No indication of a solid-state form change was observed | dehydrates rapidly | 8.5-9.5% | around 3 equivalents of water | up to 2.5 % by mass

— patent US20230250096A1, “SUBSTITUTED PHENYL-1H-PYRROLO[2,3-c] PYRIDINE DERIVATIVES” (Janssen Pharmaceutica NV, priority 2021, published 2023)
